# Legend:
# JAK2 = target: T1, JAK2 (Homo sapiens, UniProt O60674); assay: Jak Biochemical HTRF Assay (JAK2); conditions: recombinant purified GST-tagged catalytic domain, [ATP] 8.5 μM, values given as range classes
# T1 construct: recombinant purified GST-tagged catalytic domain for each enzyme; purchased Invitrogen M4290
# Description: (§1) Jak Biochemical HTRF Assay Protocol
# (§2) The ability of compounds to inhibit the activity of JAK1, JAK2, JAK3, and Tyk2 was measured using a recombinant purified GST-tagged catalytic domain for each enzyme (Invitrogen JAK1 #M4290, JAK2 #M4290, JAK3 #M4290, Tyk2 #M4290) in an HTRF format biochemical assay. The reactions employed a common peptide substrate, LCB-EQEDEPEGDYFEWLW-NH2 (in-house). The basic assay protocol is as follows: First, 250 nL of diluted compounds in DMSO were dispensed into the wells of a dry 384-well Black plate (Greiner #781076) using a Labcyte Echo 555 acoustic dispenser. Subsequent reagent additions employed an Agilent Bravo. Next, 18 μL of 1.11× enzyme and 1.11× substrate in 1× assay buffer (Invitrogen kinase buffer #PV3189, 2 mM DTT, 0.05% BSA) were added to the wells and shaken and then preincubated for 30 minutes at room temperature to allow compound binding to equilibrate. After equilibration, 2 μL of 10×ATP in 1× assay buffer was added to initiate the kinase reaction and the plates were shaken and then incubated at room temperature for 120 minutes. At the end of the incubation, 20 μL of 2× stop buffer (streptavidin-Dylight 650 (Thermo #84547B/100 mL), Eu-tagged pY20 antibody (Perkin Elmer #AD0067), EDTA, HEPES, and Triton) was added to quench the reaction. Plates were shaken and centrifuged and then incubated 60 minutes at room temperature and then read on a Perkin Elmer Envision (λex=337 nm, λem=665 and 615 nm, TRF delay time=20 μs). HTRF signal=10,000*665 nm reading/615 nm reading. After normalization to untreated controls, the percent inhibition of the HTRF signal at each compound concentration was calculated. The plot of percent inhibition versus the log of compound concentration was fit with a 4-parameter dose response equation to calculate IC50 values.
# (§3) Final reaction conditions were:
# (§4) Examples of the instant invention were evaluated in JAK2 and JAK3 in vitro binding assays. Table 13 tabulates the biological data disclosed for the instant invention as a range of JAK2 and JAK3 IC50 values (A: IC50≦10 nM; B: 10 nM>IC50≦500 nM C: IC50>500 nM).
# JAK3 = target: T2, JAK3 (Homo sapiens, UniProt P52333); assay: Jak Biochemical HTRF Assay (JAK3); conditions: recombinant purified GST-tagged catalytic domain, [ATP] 2.9 μM, values given as range classes
# T2 construct: recombinant purified GST-tagged catalytic domain for each enzyme; purchased Invitrogen M4290
# Description: as §1, §2, §3, §4
# T1 sequence (O60674 849-1124 limits assumed): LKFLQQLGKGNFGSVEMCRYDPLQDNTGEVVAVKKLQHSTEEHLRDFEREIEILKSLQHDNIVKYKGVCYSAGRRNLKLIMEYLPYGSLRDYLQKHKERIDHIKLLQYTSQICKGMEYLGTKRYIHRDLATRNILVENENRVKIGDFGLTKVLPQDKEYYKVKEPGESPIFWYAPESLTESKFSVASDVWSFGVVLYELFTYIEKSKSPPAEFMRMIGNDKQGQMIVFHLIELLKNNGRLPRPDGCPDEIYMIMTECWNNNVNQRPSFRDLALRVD
# T2 sequence (P52333 822-1111 limits assumed): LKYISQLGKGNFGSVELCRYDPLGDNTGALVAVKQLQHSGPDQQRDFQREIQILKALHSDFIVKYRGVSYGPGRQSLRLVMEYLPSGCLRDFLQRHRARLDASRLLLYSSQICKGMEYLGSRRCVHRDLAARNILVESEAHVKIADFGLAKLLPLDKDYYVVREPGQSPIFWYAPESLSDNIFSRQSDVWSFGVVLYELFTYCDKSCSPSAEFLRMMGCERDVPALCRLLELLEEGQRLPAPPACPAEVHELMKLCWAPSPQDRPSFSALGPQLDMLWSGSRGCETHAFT
SMILES,IC50 (JAK2),IC50 (JAK3)
"CC(C)C(Nc1cncc(-c2c[nH]c3ncc(NS(C)(=O)=O)cc23)c1)C(=O)NCC(F)(F)F (racemic) [Example 5-3, N^2-(5-{5-[(methylsulfonyl)amino]-1H-pyrrolo[2,3-b]pyridin-3-yl}pyridin-3-yl)-N-(2,2,2-trifluoroethyl)valinamide]",10 to 500 nM,10 to 500 nM
"CC1c2ncc(C(F)(F)F)n2CCN1c1cnnc(-c2c[nH]c3ncc(Cl)cc23)n1 (centres unmarked) [Example 1-4, 7-[3-(5-chloro-1H-pyrrolo[2,3-b]pyridin-3-yl)-1,2,4-triazin-5-yl]-8-methyl-3-(trifluoromethyl)-5,6,7,8-tetrahydroimidazo[1,2-a]pyrazine]",10 to 500 nM,≤ 10 nM
"Clc1cnc2[nH]cc(-c3nncc(N4CCCC4c4nccs4)n3)c2c1 (centres unmarked) [Example 1-5, 5-chloro-3-{5-[2-(1,3-thiazol-2-yl)pyrrolidin-1-yl]-1,2,4-triazin-3-yl}-1H-pyrrolo[2,3-b]pyridine]",10 to 500 nM,10 to 500 nM
"CC(C)(Nc1cnnc(-c2c[nH]c3ncc(F)cc23)n1)C(=O)NCC(F)(F)F [Example 1-6, N~2~-[3-(5-fluoro-1H-pyrrolo[2,3-b]pyridin-3-yl)-1,2,4-triazin-5-yl]-2-methyl-N-(2,2,2-trifluoroethyl)alaninamide]",10 to 500 nM,≤ 10 nM
"CC1c2ncc(C(F)(F)F)n2CCN1c1cnnc(-c2c[nH]c3ncc(F)cc23)n1 (centres unmarked) [Example 1-10, 7-[3-(5-fluoro-1H-pyrrolo[2,3-b]pyridin-3-yl)-1,2,4-triazin-5-yl]-8-methyl-3-(trifluoromethyl)-5,6,7,8-tetrahydroimidazo[1,2-a]pyrazine]",10 to 500 nM,10 to 500 nM
"N#Cc1cnc2[nH]cc(-c3nncc(N4CCCC4c4nccs4)n3)c2c1 (centres unmarked) [Example 1-12, 3-{5-[2-(1,3-thiazol-2-yl)pyrrolidin-1-yl]-1,2,4-triazin-3-yl}-1H-pyrrolo[2,3-b]pyridine-5-carbonitrile]",10 to 500 nM,10 to 500 nM
"CC(C)[C@@H](Nc1cnnc(-c2c[nH]c3ncc(C#N)cc23)n1)C(=O)NCC(F)(F)F [Example 1-17, N~2~-[3-(5-cyano-1H-pyrrolo[2,3-b]pyridin-3-yl)-1,2,4-triazin-5-yl]-N-(2,2,2-trifluoroethyl)-D-valinamide]",10 to 500 nM,≤ 10 nM
"CC(C)[C@@H](Nc1cnnc(-c2c[nH]c3ncc(C(N)=O)cc23)n1)C(=O)NCC(F)(F)F [Example 1-18, 3-[5-({(1R)-2-methyl-1-[(2,2,2-trifluoroethyl)carbamoyl]propyl}amino)-1,2,4-triazin-3-yl]-1H-pyrrolo[2,3-b]pyridine-5-carboxamide]",10 to 500 nM,≤ 10 nM
"O=C(NCC(F)(F)F)[C@H]1CCCC[C@H]1Nc1cnnc(-c2c[nH]c3ncc(Cl)cc23)n1 [Example 1-19, (1S,2R)-2-{[3-(5-chloro-1H-pyrrolo[2,3-b]pyridin-3-yl)-1,2,4-triazin-5-yl]amino}-N-(2,2,2-trifluoroethyl)cyclohexane-carboxamide]",10 to 500 nM,10 to 500 nM
"COc1cnc2[nH]cc(-c3nncc(N[C@@H](C(=O)NCC(F)(F)F)C(C)C)n3)c2c1 [Example 1-20, N~2~-[3-(5-methoxy-1H-pyrrolo[2,3-b]pylidin-3-yl)-1,2,4-triazin-5-yl]-N-(2,2,2-trifluoroethyl)-D-valinamide]",10 to 500 nM,≤ 10 nM
"O=C(NCC(F)(F)F)[C@H]1CCCC[C@H]1Nc1cnnc(-c2c[nH]c3ncc(F)cc23)n1 [Example 1-21, (1S,2R)-2-{[3-(5-fluoro-1H-pyrrolo[2,3-b]pyridin-3-yl)-1,2,4-triazin-5-yl]amino}-N-(2,2,2-trifluoroethyl)cyclohexane-carboxamide]",> 500 nM,10 to 500 nM
"NC(=O)c1cnc2[nH]cc(-c3nncc(N[C@@H]4CCCC[C@@H]4C(=O)NCC(F)(F)F)n3)c2c1 [Example 1-23, 3-[5-({(1R,2S)-2-[(2,2,2-trifluoroethyl)carbamoyl]cyclo-hexyl}amino)-1,2,4-triazin-3-yl]-1H-pyrrolo[2,3-b]pyridine-5-carboxamide]",10 to 500 nM,10 to 500 nM

# Other lines, results leading:
IC50 (JAK2),IC50 (JAK3),SMILES
≤ 10 nM,≤ 10 nM,"CC(C)C(Nc1cncc(-c2c[nH]c3ncc(-c4cnn(C)c4)cc23)c1)C(=O)NCC(F)(F)F (racemic) [Example 8-1, N^2-{5-[5-(1-methyl-1H-pyrazol-4-yl)-1H-pyrrolo[2,3-b]pyridin-3-yl]pyridin-3-yl}-N-(2,2,2-trifluoroethyl)valinamide]"
10 to 500 nM,≤ 10 nM,"CC(C)[C@@H](Nc1cncc(-c2c[nH]c3ncc(Cl)cc23)c1)C(=O)NCC(F)(F)F (single isomer, unassigned) [Example 1-1]"
10 to 500 nM,≤ 10 nM,"CC(C)C(Nc1cncc(-c2c[nH]c3ncc(F)cc23)c1)C(=O)NCC(F)(F)F (centres unmarked) [Example 1-2, 2-{[5-(5-fluoro-1H-pyrrolo[2,3-b]pyridin-3-yl)pyridin-3-yl]amino}-3-methyl-N-(2,2,2-trifluoroethyl)butanamide]"
10 to 500 nM,≤ 10 nM,"CC(C)[C@@H](Nc1cnnc(-c2c[nH]c3ncc(Cl)cc23)n1)C(=O)NCC(F)(F)F [Example 1-3, N~2~-[3-(5-chloro-1H-pyrrolo[2,3-b]pyridin-3-yl)-1,2,4-triazin-5-yl]-N-(2,2,2-trifluoroethyl)-D-valinamide]"
10 to 500 nM,≤ 10 nM,"CC(C)(Nc1cnnc(-c2c[nH]c3ncc(C#N)cc23)n1)C(=O)NCC(F)(F)F [Example 1-7, N~2~-[3-(5-cyano-1H-pyrrolo[2,3-b]pyridin-3-yl)-1,2,4-triazin-5-yl]-2-methyl-N-(2,2,2-trifluoroethyl)alaninamide]"
10 to 500 nM,10 to 500 nM,"C[C@@H](Nc1cnnc(-c2c[nH]c3ncc(F)cc23)n1)C(=O)NCC(F)(F)F [Example 1-8, N~2~-[3-(5-fluoro-1H-pyrrolo[2,3-b]pyridin-3-yl)-1,2,4-triazin-5-yl]-N-(2,2,2-trifluoroethyl)-D-alaninamide]"
10 to 500 nM,≤ 10 nM,"C[C@@H](Nc1cnnc(-c2c[nH]c3ncc(C#N)cc23)n1)C(=O)NCC(F)(F)F [Example 1-9, N~2~-[3-(5-cyano-1H-pyrrolo[2,3-b]pyridin-3-yl)-1,2,4-triazin-5-yl]-N-(2,2,2-trifluoroethyl)-D-alaninamide]"
10 to 500 nM,10 to 500 nM,"Fc1cnc2[nH]cc(-c3nncc(N4CCCC4c4nccs4)n3)c2c1 (centres unmarked) [Example 1-11, 5-fluoro-3-{5-[2-(1,3-thiazol-2-yl)pyrrolidin-1-yl]-1,2,4-triazin-3-yl}-1H-pyrrolo[2,3-b]pyridine]"
10 to 500 nM,≤ 10 nM,"CC(C)(Nc1cnnc(-c2c[nH]c3ncc(C(N)=O)cc23)n1)C(=O)NCC(F)(F)F [Example 1-13, 3-[5-({1,1-dimethyl-2-oxo-2-[(2,2,2-trifluoroethyl)amino]ethyl}amino)-1,2,4-triazin-3-yl]-1H-pyrrolo[2,3-b]pyridine-5-carboxamide]"
10 to 500 nM,≤ 10 nM,"C[C@@H](Nc1cnnc(-c2c[nH]c3ncc(C(N)=O)cc23)n1)C(=O)NCC(F)(F)F [Example 1-14, 3-[5-({(1R)-1-methyl-2-oxo-2-[(2,2,2-trifluoroethyl)amino]ethyl}amino)-1,2,4-triazin-3-yl]-1H-pyrrolo[2,3-b]pyridine-5-carboxamide]"
10 to 500 nM,≤ 10 nM,"CC1c2ncc(C(F)(F)F)n2CCN1c1cnnc(-c2c[nH]c3ncc(C(N)=O)cc23)n1 (centres unmarked) [Example 1-15, 3-{5-[8-methyl-3-(trifluoromethyl)-5,6-dihydroimidazo[1,2-a]pyrazin-7(8H)-yl]-1,2,4-triazin-3-yl}-1H-pyrrolo[2,3-b]pyridine-5-carboxamide]"
10 to 500 nM,≤ 10 nM,"CC(C)[C@@H](Nc1cnnc(-c2c[nH]c3ncc(F)cc23)n1)C(=O)NCC(F)(F)F [Example 1-16, N~2~-[3-(5-fluoro-1H-pyrrolo[2,3-b]pyridin-3-yl)-1,2,4-triazin-5-yl]-N-(2,2,2-trifluoroethyl)-D-valinamide]"
10 to 500 nM,10 to 500 nM,"N#Cc1cnc2[nH]cc(-c3nncc(N[C@@H]4CCCC[C@@H]4C(=O)NCC(F)(F)F)n3)c2c1 [Example 1-22, (1S,2R)-2-{[3-(5-cyano-1H-pyrrolo[2,3-b]pyridin-3-yl)-1,2,4-triazin-5-yl]amino}-N-(2,2,2-trifluoroethyl)cyclohexane-carboxamide]"

# Reference: patent US9096598B2 (Merck Sharp & Dohme Corp., priority 2011, dated 2015)
